# Measurements reported in a melting point compilation (Tetko et al.; mined from patent text by program, amines drawn as free bases though some values may be those of a salt).
row,melting point [°C],Compound
1,161 to 163,COc1cc(OC)nc(Oc2cccc3c2C(=O)OC3SC#N)n1 (stereo not given)
2,221 to 223,COc1cc([C@@H]2c3cc4c(cc3C(=O)C[C@H]2C(=O)O)OCO4)cc(OC)c1OC (relative stereo)
3,184 to 192,COc1ccc(Cl)cc1N1CCN(CCCNC(=O)c2cccc3c(=O)c(C)c(C(N)=O)oc23)CC1
4,190 to 192,CNS(=O)(=O)c1sc2ccccc2c1CC(=O)O
5,210 to 212,O=S(=O)(c1ccc(O)cc1)N1c2ccccc2-c2ccccc2C1c1ccccc1 (stereo not given)
6,215 to 219,CC12CCC(O)CC1=CCC1C2CCC2(C)C(c3ccsc3)=CCC12 (stereo not given)
7,111 to 112,COCOc1ccc(N2C(=O)[C@@H](N=[N+]=[N-])[C@H]2C=Cc2ccccc2)cc1 (relative stereo)
8,147 to 148,COc1ccc(CNC(=O)N2CCN(c3ncnc4cc(OC)c(OC)cc34)CC2)cc1
9,204,CCc1c(C=CC(=O)O)ccc2c1OCO2
10,174,Cc1nn(CC(F)(F)F)c(-c2ccc(F)cc2)c1-c1ccc2c(c1)NC(=O)CO2
11,142 to 145,CC(C)c1nc(COC(=O)N[C@H](C(=O)N[C@@H](Cc2ccccc2)C[C@H](O)[C@H](Cc2ccccc2)NC(=O)OCc2cncs2)C(C)C)cs1
12,60 to 70,COC(=O)[C@H](Cc1ccc(OCCCN(C)Cc2ccccc2)cc1)NC(=O)[C@@H]1CCCN1S(=O)(=O)c1ccc(C)cc1
13,51,Cc1nn(C)c(C)c1N=C=S
14,117 to 119,COc1nc(C(F)(F)F)cc(=O)n1-c1cc(OC(C)C)c(Cl)cc1F
15,65 to 67,CC(C)(C)c1ccc(O)cc1Cl
16,87 to 89,CC(CCCC(=O)O)(c1ccc(OCc2ccc3ccccc3n2)cc1)c1ccc(OCc2ccc3ccccc3n2)cc1
17,285 to 287,O=C(Cn1cnc2cc(-c3ccc(Cl)cc3)sc2c1=O)c1ccc2c(c1)CCN(C(=O)C(F)(F)F)CC2
18,279 to 283,N#Cc1ccc2ccc(C(=O)O)cc2c1
19,160 to 161,OCc1c(Cl)nc(C2CCCCC2)n1Cc1ccccc1
20,121 to 123,COc1c(C)cc2c(c1C)C(c1ccc(C(C)C)cc1)C(C)(C)O2 (stereo not given)
21,154 to 156,COC(=O)c1cc(S(=O)(=O)N(C)C)c(F)c(F)c1Nc1ccc(I)cc1Cl
22,93 to 94,c1ccc(N2c3ccccc3Sc3ccccc32)cc1

row,melting point [°C],Compound
1,69 to 70,CC(C)(C)OC(=O)NCCCCC(=O)NCCC(=O)OCc1ccccc1
2,236 to 238,COC(=O)Nc1cnc2c(NC(=O)c3c(Cl)cccc3Cl)cccc2c1-n1ccnc1
3,58 to 65,COc1ccc(S(=O)(=O)C(CCCCCc2ccc(Cl)cc2)C(=O)O)cc1 (stereo not given)
4,150 to 153,C[C@H]1CC[C@H]2C(C)(C)[C@@H](O)CC[C@]23Oc2c(c(O)cc4c2CN(S(=O)(=O)c2ccccc2)C4)C[C@]13C
5,189 to 190,Cc1nc(-n2cnn(Cc3ccc(F)cc3)c2=O)sc1C(=O)NCc1nccs1
6,89.7 to 91.2,CN1CCC2(CC=C(c3cc4ccccc4s3)CC2)CC1
7,105 to 107,CS(=O)(=O)Oc1ccc(-c2sc3cc(OS(C)(=O)=O)ccc3c2C(=O)c2ccc(OCCBr)cc2)cc1
8,241,FC(F)(F)c1cccc(-c2cc(C(F)(F)F)n3ncc(-c4ccncc4)c3n2)c1
9,238 to 239,O=C(O)COc1ccc(C(=O)CCN2CCN(c3ccncc3)CC2)cc1
10,260,O=C(O)CCCOc1ccc2nc3c(cc2c1)CC(=O)N3
11,47 to 48,CCOC(=O)NCCc1ccccc1
12,110 to 125,COc1ccc(N2CCOCC2)c2sc(NC(=O)N(C)C3CCCC3)nc12
13,174,COCCOC(=O)COc1ccc(C(=O)[C@H](COC(C)(C)C)NC(=O)c2ccc(C(=N)NC(=O)OC(C)(C)C)cc2)cc1
14,270,CNC1N=CN(c2c(Cl)cccc2Cl)C(=O)N1 (stereo not given)
15,185 to 187,CC(=O)Nc1c(C(=O)c2cccc(C#N)c2)[nH]c2cc(Cl)ccc12
16,216 to 217,O=C(NCc1ccccc1)c1cn2c(=O)n(Cc3ccc(Cl)c(Cl)c3)c(=O)cc2s1
17,48 to 48.5,CCOc1ccc(Br)c(Cl)c1F
18,340,CC(=O)Nc1ccc2c(c1)C(=O)c1cc(NC(C)=O)ccc1C2=O
19,160,CCCCc1ccc(OC)c(-c2csc(NC(=O)c3ccc(C(=O)O)cc3)n2)c1
20,189 to 190,Cc1cc(-c2nc3cccnn3c2-c2ccnc(NC(=O)NCCO)c2)ccc1F
21,250 to 252,O=C(NC1CCCCC1)c1ccc(-c2cnc(-c3ccc(NC(=O)c4ccccn4)cc3)[nH]2)cc1
22,156 to 157,CCCCCCCCCCCC#Cc1ccc(C=CC(=O)O)cc1

row,melting point [°C],Compound
1,137 to 138,O=S1(=O)N[C@@H](c2cccc(Cl)c2)c2ccccc21
2,302 to 305,N#Cc1ccc2[nH]c(-c3ccc(-c4ccc(C#N)c(F)c4)cc3)nc2c1
3,158 to 160,O=C(O)c1ccccc1OC(F)(F)C(F)F
4,125,CCOC(=O)c1cc2cc(F)cc(Br)c2[nH]1
5,60.5 to 61,CCCCOc1cc(CCCC(=O)O)n(Cc2ccc(Cl)cc2Cl)n1
6,132,CN1CC(=O)Nc2ccccc21
7,141 to 142,COc1ccc2nc(NC(=O)COC(=O)C(C)C)sc2c1
8,87 to 89,Cc1cc(Br)ccc1C(=O)N=CN(C)C
9,96 to 98,CCOCN(C(=O)CCl)c1c(C)cccc1[N+](=O)[O-]
10,134,CCCOC(=O)OC1CSC(Oc2ccc3c(C)cc(=O)oc3c2)C(OC(=O)OCCC)C1OC(=O)OCCC (stereo not given)
11,230 to 235,Nc1nc(CN2C(=O)C3(COc4cc5c(cc43)OCO5)c3ccccc32)cs1 (stereo not given)
12,177,O=Cc1ccc(OC2OC(CO)C(O)C(O)C2O)cc1 (stereo not given)
13,140 to 142,COC(=O)[C@H](NC(=O)OC(C)(C)C)c1ccc(O)cc1
14,53 to 57,C=CN(Cc1ccccc1)C(=O)C(F)(F)C(F)(F)C(F)(F)C(F)(F)C(F)(F)C(F)F
15,184 to 186,Cc1nc(-c2nc(-c3ccc(F)cc3)c(-c3ccc(S(C)(=O)=O)cc3)s2)cs1
16,59 to 60,C=C(C)C(=O)Oc1ccc(S(=O)(=O)NCCCC)cc1
17,101 to 102,CCC(O)c1cc(-c2ccccc2)no1 (stereo not given)
18,170 to 172,CN1CCN(C(=O)c2cc3ccccc3c(=O)[nH]2)CC1
19,> 270,CCOC(=O)c1ccc(C(=O)Nc2ccc3c(c2)N(C)C(=O)C(C)(C)C(=O)N3C)cc1
20,128 to 130,CSc1nc(O)nn1C
21,167 to 169,CC(=O)Nc1c(C(=O)c2ccc3ccccc3c2)[nH]c2cc(Cl)ccc12
22,112,COc1ccc2ccccc2c1CONC(C)=O

row,Compound,melting point [°C]
1,COc1ccc(Cc2ncc[nH]2)cc1,158 to 160
2,Clc1ccc2c(C3=CCN(CCC4CCc5ccccc54)CC3)c[nH]c2c1 (stereo not given),181 to 183
3,CC1Cc2ccc(Br)cc2C(c2ccc([N+](=O)[O-])cc2)=NN1 (stereo not given),125 to 130
4,CNC(=N[N+](=O)[O-])N(Cc1cnc(Cl)s1)C(=O)C(C)C,101 to 104
